Reference: ChEMBL document CHEMBL5335773, “Synthesis and structure-activity relationship of new nicotinamide phosphoribosyltransferase inhibitors with antitumor activity on solid and haematological cancer” (Eur J Med Chem, 2023)

How the values were obtained:
MIA PaCa-2 [1] = experiment: cells; details: Homo sapiens, MIA PaCa-2, 72 h
[2] = biological target: Nicotinamide phosphoribosyltransferase (Homo sapiens, UniProt P43490); experiment: Inhibition of full-length recombinant human NAMPT (2 to 491 residues) expressed in Escherichia coli using NAM as substrate preincubated for 5 mins followed by substrate addition measured after 15 mins by fluorescence based assay
ML-2 = experiment: Cytotoxicity against human ML-2 cells assessed as inhibition of cell viability at 72 hrs by SRB assay; type: functional, cell-based; details: ML-2, 72 h
NAMALVA = experiment: Cytotoxicity against human NAMALVA cells assessed as inhibition of cell viability at 72 hrs by SRB assay; type: functional, cell-based
RPMI-8226 = experiment: Cytotoxicity against human RPMI-8226 cells assessed as inhibition of cell viability at 72 hrs by SRB assay; type: functional, cell-based; details: RPMI-8226, 72 h
MIA PaCa-2 [3] = experiment: cells; details: Homo sapiens, MIA PaCa-2, 24 h
Jurkat = experiment: Cytotoxicity against human Jurkat cells assessed as inhibition of cell viability at 72 hrs by SRB assay; type: functional, cell-based
NB-4 = experiment: Cytotoxicity against human NB4 cells assessed as inhibition of cell viability at 72 hrs by SRB assay; type: functional, cell-based; details: NB-4, 72 h

Chain of Nicotinamide phosphoribosyltransferase (P43490 whole entry, the tested form may be a part): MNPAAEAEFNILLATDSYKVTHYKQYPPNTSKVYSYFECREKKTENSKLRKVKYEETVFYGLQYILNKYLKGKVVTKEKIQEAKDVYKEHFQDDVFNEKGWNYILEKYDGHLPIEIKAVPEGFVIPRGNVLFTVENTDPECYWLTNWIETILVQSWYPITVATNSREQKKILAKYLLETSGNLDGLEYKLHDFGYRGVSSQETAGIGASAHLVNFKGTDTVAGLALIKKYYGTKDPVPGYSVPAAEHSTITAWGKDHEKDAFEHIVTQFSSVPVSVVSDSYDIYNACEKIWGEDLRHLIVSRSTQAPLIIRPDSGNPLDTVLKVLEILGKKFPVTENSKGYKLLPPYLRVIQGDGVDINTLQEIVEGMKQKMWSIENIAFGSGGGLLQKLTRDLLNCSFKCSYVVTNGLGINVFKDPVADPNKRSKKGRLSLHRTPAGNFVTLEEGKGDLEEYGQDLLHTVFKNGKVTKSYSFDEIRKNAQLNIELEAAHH

| Compound | IC50 (MIA PaCa-2 [1]) | IC50 (MIA PaCa-2 [3]) | further results |
| --- | --- | --- | --- |
| COc1ccc2[nH]c(C(=O)N3CCC(CCCCn4cc(-c5cccnc5)nn4)CC3)cc2c1 | 860 nM |  |  |
| O=C(Nc1ccc(C(=O)N(Cc2ccco2)C2CCCC2)cc1)N1Cc2ccccc2C1 | > 1000 nM |  |  |
| N#C/N=C(\NCCCCCCC(=O)N(Cc1ccc(Cl)cc1)Cc1ccco1)N1Cc2ccccc2C1 | > 1000 nM |  |  |
| O=C(NCCCCCCCCNC(=S)Nc1cccnc1)c1cc2ccccc2[nH]1 | 605 nM |  |  |
| O=C(c1cc2ccccc2[nH]1)N1CCC(CCCCn2cc(-c3cccnc3)nn2)CC1 | 727 nM |  |  |
| N#C/N=C(\NCCCCCCCC(=O)NCc1ccco1)Nc1ccncc1 | > 1000 nM |  |  |
| O=C(CCCCCCCn1cc(-c2cccnc2)nn1)NCc1ccco1 | > 1000 nM |  |  |
| N#C/N=C(\NCCCCC1CCN(C(=O)c2cc3ccccc3[nH]2)CC1)Nc1cccnc1 | 113 nM |  |  |
| N#C/N=C(\NCCCCCCC(=O)N(CCCN1CCCC1)Cc1ccco1)Nc1ccncc1 | 4.5 nM | 2 nM |  |
| N#C/N=C(\NCCCCCCC(=O)N(Cc1ccco1)C1CCCC1)N1Cc2ccccc2C1 | > 1000 nM |  |  |
| O=C(c1cc2ccccc2[nH]1)N1CCC(CCCCNC(=S)Nc2cccnc2)CC1 | > 1000 nM |  |  |
| N#C/N=C(\NCCCCCCC(=O)N(Cc1ccco1)c1ccc(Cl)cc1)Nc1ccncc1 | 1.7 nM | 0.17 nM |  |
| N#C/N=C(\NCCCCCCS(=O)(=O)N(CCCN1CCOCC1)Cc1ccco1)Nc1ccncc1 | 2.26 nM | 1.5 nM |  |
| N#C/N=C(\NCCCCCCC(=O)N(Cc1ccco1)C1CCCC1)Nc1ccccc1 | > 1000 nM |  |  |

Further lines, with some results ahead:

| IC50 (MIA PaCa-2 [1]) | IC50 (MIA PaCa-2 [3]) | Compound | further results |
| --- | --- | --- | --- |
| 153 nM |  | O=C(CCCCCCNC(=S)Nc1cccnc1)N(Cc1ccco1)C1CCCC1 |  |
| 16.4 nM | 0.43 nM | O=S(=O)(CCCCCCNC(=S)Nc1cccnc1)N(Cc1ccco1)C1CCCC1 | IC50 [2]: 69.1 nM; IC50 (ML-2): 3.1 nM; IC50 (NAMALVA): 4.23 nM; IC50 (RPMI-8226): 20.1 nM |
| 494 nM |  | O=C(CCCCCCCn1cc(-c2cccnc2)nn1)n1cccc1 |  |
| 81 nM |  | N#C/N=C(\NCCCCCCCCNC(=O)c1cc2ccccc2[nH]1)Nc1cccnc1 |  |
| 176 nM | 4.7 nM | N#C/N=C(\NCCCCCCS(=O)(=O)N(Cc1ccco1)C1CCCC1)Nc1ccccc1 |  |
| > 1000 nM |  | O=C(NCc1ccco1)c1ccc(NC(=O)N2Cc3ccccc3C2)cc1 |  |
| 854 nM |  | O=C(CCCCCCCNC(=S)Nc1cccnc1)n1cccc1 |  |
| 6.3 nM | 0.5 nM | N#C/N=C(\NCCCCCC(=O)N(Cc1ccco1)c1ccc(Cl)cc1)Nc1ccncc1 |  |
| 2.1 nM | 0.14 nM | N#C/N=C(\NCCCCCCC(=O)N(Cc1ccco1)c1ccc([N+](=O)[O-])cc1)Nc1ccncc1 | IC50 (ML-2): 0.32 nM; IC50 (NAMALVA): 1.39 nM; IC50 (RPMI-8226): 2.13 nM |
| 3 nM | 1.43 nM | N#C/N=C(\NCCCCCCC(=O)N(CCCN1CCOCC1)Cc1ccco1)Nc1ccncc1 |  |
| > 1000 nM |  | N#C/N=C(\NCCCCCCC(=O)N(CCCN1CCOCC1)Cc1ccco1)N1Cc2ccccc2C1 |  |
| 738 nM |  | CCOC(=O)c1ccc(N/C(=N/C#N)NCCCCCCS(=O)(=O)N(Cc2ccco2)C2CCCC2)cc1 |  |
| 25.8 nM | 2.36 nM | N#C/N=C(\NCCCCCCn1cc(CN(CCCN2CCOCC2)Cc2ccco2)nn1)Nc1ccncc1 |  |
| 1000 nM |  | N#C/N=C(\NCCCCCCS(=O)(=O)N(Cc1ccco1)C1CCCC1)Nc1ccc(N=[N+]=[N-])cc1 |  |
| > 1000 nM |  | O=C(CCCCCCCNC(=S)Nc1cccnc1)NCc1ccco1 |  |
| 3 nM | 0.2 nM | N#C/N=C(\NCCCCCC(=O)N(Cc1ccco1)C1CCCC1)Nc1ccncc1 | IC50 (ML-2): 0.36 nM; IC50 (NAMALVA): 1.77 nM; IC50 (RPMI-8226): 1.9 nM |
| 549 nM |  | O=C(NCCCCCCCCn1cc(-c2cccnc2)nn1)c1cc2ccccc2[nH]1 |  |
| 16.3 nM | 11.2 nM | N#C/N=C(\NCCCCCC(=O)N(CCCN1CCOCC1)Cc1ccco1)Nc1ccncc1 |  |
| 2.4 nM | 0.34 nM | O=C(/C=C/c1cccnc1)NCCCCC1CCN(C(=O)c2ccccc2)CC1 [DAPORINAD] | IC50 (ML-2): 0.24 nM; IC50 (Jurkat): 0.73 nM; IC50 (NAMALVA): 0.37 nM; IC50 (RPMI-8226): 0.76 nM; IC50 (NB-4): 2 nM |
